Results published in PubChem BioAssay (NCI).
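Where inhibition never reached the appropriate level, the endpoint shown equals the highest concentration tested. Otherwise, values were interpolated linearly from a five-concentration, 48-hour dose response in 96-well plates. GI50 = concentration required for 50% inhibition of growth. TGI marks complete inhibition of growth.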

Tests used:
Test in all cases: inhibition of tumour cell growth, NCI panel, 48 h
786-0 renal = system: 786-0 renal
A498 renal = system: A498 renal
A549 NSCLC = system: A549 NSCLC
ACHN renal = system: ACHN renal
BT-549 breast = system: BT-549 breast
CAKI-1 renal = system: CAKI-1 renal
CCRF-CEM leukemia = system: CCRF-CEM leukemia
COLO 205 colon = system: COLO 205 colon
DU-145 prostate = system: DU-145 prostate
EKVX NSCLC = system: EKVX NSCLC
HCC-2998 colon = system: HCC-2998 colon
HCT-116 colon = system: HCT-116 colon
HCT-15 colon = system: HCT-15 colon
HL-60(TB) leukemia = system: HL-60(TB) leukemia
HOP-62 NSCLC = system: HOP-62 NSCLC
HOP-92 NSCLC = system: HOP-92 NSCLC
HS 578T breast = system: HS 578T breast
HT29 colon = system: HT29 colon
IGROV1 ovarian = system: IGROV1 ovarian
K-562 leukemia = system: K-562 leukemia
KM12 colon = system: KM12 colon
LOX IMVI melanoma = system: LOX IMVI melanoma
M14 melanoma = system: M14 melanoma
MALME-3M melanoma = system: MALME-3M melanoma
MCF7 breast = system: MCF7 breast
MDA-MB-231 breast = system: MDA-MB-231 breast
MDA-MB-435 = system: MDA-MB-435
MDA-MB-468 breast = system: MDA-MB-468 breast
MOLT-4 leukemia = system: MOLT-4 leukemia
NCI-H226 lung = system: NCI-H226 lung
NCI-H23 lung = system: NCI-H23 lung
NCI-H460 lung = system: NCI-H460 lung
NCI-H522 lung = system: NCI-H522 lung
OVCAR-3 ovarian = system: OVCAR-3 ovarian
OVCAR-4 ovarian = system: OVCAR-4 ovarian
OVCAR-5 ovarian = system: OVCAR-5 ovarian
OVCAR-8 ovarian = system: OVCAR-8 ovarian
PC-3 prostate = system: PC-3 prostate
RPMI-8226 leukemia = system: RPMI-8226 leukemia
RXF 393 renal = system: RXF 393 renal
SF-268 CNS = system: SF-268 CNS
SF-295 CNS = system: SF-295 CNS
SF-539 CNS = system: SF-539 CNS
SK-MEL-28 melanoma = system: SK-MEL-28 melanoma
SK-MEL-5 melanoma = system: SK-MEL-5 melanoma
SK-OV-3 ovarian = system: SK-OV-3 ovarian
SN12C renal = system: SN12C renal
SNB-19 CNS = system: SNB-19 CNS
SNB-75 CNS = system: SNB-75 CNS
SR leukemia = system: SR leukemia
SW-620 colon = system: SW-620 colon
T-47D breast = system: T-47D breast
TK-10 renal = system: TK-10 renal
U251 CNS = system: U251 CNS
UACC-257 melanoma = system: UACC-257 melanoma
UACC-62 melanoma = system: UACC-62 melanoma
UO-31 renal = system: UO-31 renal
NCI/ADR-RES ovarian = system: NCI/ADR-RES ovarian

SMILES: CC1(C)CC[C@]2(C(=O)Nc3ccc(F)cc3)CC[C@]3(C)C(=CCC4[C@@]5(C)C[C@@H](O)[C@H](O)[C@@](C)(CO)C5CC[C@]43C)C2C1 (some centres not stated)
- GI50 (786-0 renal): 15.5 µM
- TGI (786-0 renal): 30.4 µM
- GI50 (A498 renal): 20.8 µM
- TGI (A498 renal): 45.6 µM
- GI50 (A549 NSCLC): 29.5 µM
- TGI (A549 NSCLC): > 100 µM
- GI50 (ACHN renal): 14.8 µM
- TGI (ACHN renal): 28.1 µM
- GI50 (BT-549 breast): 13.1 µM
- TGI (BT-549 breast): 26.8 µM
- GI50 (CAKI-1 renal): 11.1 µM
- TGI (CAKI-1 renal): 39.6 µM
- GI50 (CCRF-CEM leukemia): 20 µM
- TGI (CCRF-CEM leukemia): 90.6 µM
- GI50 (COLO 205 colon): 16.7 µM
- TGI (COLO 205 colon): 33.6 µM
- GI50 (DU-145 prostate): 20.1 µM
- TGI (DU-145 prostate): 45.6 µM
- GI50 (EKVX NSCLC): 17.2 µM
- TGI (EKVX NSCLC): 47.2 µM
- GI50 (HCC-2998 colon): 16.7 µM
- TGI (HCC-2998 colon): 31.1 µM
- GI50 (HCT-116 colon): 13.1 µM
- TGI (HCT-116 colon): 26 µM
- GI50 (HCT-15 colon): 13.2 µM
- TGI (HCT-15 colon): 27.4 µM
- GI50 (HL-60(TB) leukemia): 14.2 µM
- TGI (HL-60(TB) leukemia): 38.8 µM
- GI50 (HOP-62 NSCLC): 18.8 µM
- TGI (HOP-62 NSCLC): 43.5 µM
- GI50 (HOP-92 NSCLC): 13.2 µM
- TGI (HOP-92 NSCLC): 29 µM
- GI50 (HS 578T breast): 20.5 µM
- TGI (HS 578T breast): 76.9 µM
- GI50 (HT29 colon): 15.6 µM
- TGI (HT29 colon): 30.5 µM
- GI50 (IGROV1 ovarian): 15.8 µM
- TGI (IGROV1 ovarian): 34.1 µM
- GI50 (K-562 leukemia): 17.8 µM
- TGI (K-562 leukemia): 62.8 µM
- GI50 (KM12 colon): 17.5 µM
- TGI (KM12 colon): 35.7 µM
- GI50 (LOX IMVI melanoma): 15.6 µM
- TGI (LOX IMVI melanoma): 30.7 µM
- GI50 (M14 melanoma): 15.7 µM
- TGI (M14 melanoma): 31.5 µM
- GI50 (MALME-3M melanoma): 16 µM
- TGI (MALME-3M melanoma): 29.9 µM
- GI50 (MCF7 breast): 13 µM
- TGI (MCF7 breast): 29.5 µM
- GI50 (MDA-MB-231 breast): 14.2 µM
- TGI (MDA-MB-231 breast): 28.7 µM
- GI50 (MDA-MB-435): 14.4 µM
- TGI (MDA-MB-435): 28.8 µM
- GI50 (MDA-MB-468 breast): 13.5 µM
- TGI (MDA-MB-468 breast): 31.3 µM
- GI50 (MOLT-4 leukemia): 7.51 µM
- TGI (MOLT-4 leukemia): 30.6 µM
- GI50 (NCI-H226 lung): 13.5 µM
- TGI (NCI-H226 lung): 34.3 µM
- GI50 (NCI-H23 lung): 17.9 µM
- TGI (NCI-H23 lung): 39.3 µM
- GI50 (NCI-H460 lung): 15.4 µM
- TGI (NCI-H460 lung): 33.8 µM
- GI50 (NCI-H522 lung): 17.6 µM
- TGI (NCI-H522 lung): 40.1 µM
- GI50 (OVCAR-3 ovarian): 16.3 µM
- TGI (OVCAR-3 ovarian): 31.2 µM
- GI50 (OVCAR-4 ovarian): 16.8 µM
- TGI (OVCAR-4 ovarian): 46.5 µM
- GI50 (OVCAR-5 ovarian): 14.6 µM
- TGI (OVCAR-5 ovarian): 28.4 µM
- GI50 (OVCAR-8 ovarian): 29 µM
- TGI (OVCAR-8 ovarian): > 100 µM
- GI50 (PC-3 prostate): 12.8 µM
- TGI (PC-3 prostate): 38.5 µM
- GI50 (RPMI-8226 leukemia): 14.9 µM
- TGI (RPMI-8226 leukemia): 64.6 µM
- GI50 (RXF 393 renal): 10.9 µM
- TGI (RXF 393 renal): 23.3 µM
- GI50 (SF-268 CNS): 22.6 µM
- TGI (SF-268 CNS): 89 µM
- GI50 (SF-295 CNS): 13.9 µM
- TGI (SF-295 CNS): 28.6 µM
- GI50 (SF-539 CNS): 14.8 µM
- TGI (SF-539 CNS): 28.3 µM
- GI50 (SK-MEL-28 melanoma): 15.6 µM
- TGI (SK-MEL-28 melanoma): 31.6 µM
- GI50 (SK-MEL-5 melanoma): 14.7 µM
- TGI (SK-MEL-5 melanoma): 27.8 µM
- GI50 (SK-OV-3 ovarian): 20.3 µM
- TGI (SK-OV-3 ovarian): 51 µM
- GI50 (SN12C renal): 14.8 µM
- TGI (SN12C renal): 29.6 µM
- GI50 (SNB-19 CNS): 23.8 µM
- TGI (SNB-19 CNS): > 100 µM
- GI50 (SNB-75 CNS): 13.5 µM
- TGI (SNB-75 CNS): 61 µM
- GI50 (SR leukemia): 10.3 µM
- TGI (SR leukemia): 37.3 µM
- GI50 (SW-620 colon): 25.8 µM
- TGI (SW-620 colon): > 100 µM
- GI50 (T-47D breast): 12.9 µM
- TGI (T-47D breast): 32.1 µM
- GI50 (TK-10 renal): 22.8 µM
- TGI (TK-10 renal): 54.1 µM
- GI50 (U251 CNS): 14.9 µM
- TGI (U251 CNS): 30 µM
- GI50 (UACC-257 melanoma): 18.4 µM
- TGI (UACC-257 melanoma): 47.9 µM
- GI50 (UACC-62 melanoma): 9.17 µM
- TGI (UACC-62 melanoma): 21.9 µM
- GI50 (UO-31 renal): 12.8 µM
- TGI (UO-31 renal): 29.2 µM

SMILES: NS(=O)(=O)c1ccc(-n2cc(-c3cccc(NC(=O)c4ccc(Cl)c(C(F)(F)F)c4)c3)nn2)cc1
- GI50 (HCT-15 colon): 7.8 µM
- TGI (HCT-15 colon): 68.5 µM
- GI50 (MOLT-4 leukemia): 3.1 µM
- TGI (MOLT-4 leukemia): > 100 µM
- GI50 (NCI/ADR-RES ovarian): 80.7 µM
- TGI (NCI/ADR-RES ovarian): > 100 µM
- GI50 (SR leukemia): 3.9 µM
- TGI (SR leukemia): > 100 µM
